{
  "source": "patent US7906486B2",
  "about": "“Method of treating or preventing tissue deterioration, injury or damage due to disease of mucosa” (SciClone Pharmaceuticals, Inc., priority 2007, dated 2011)",
  "key": {"[1]": {"tested_on": "oral mucositis induced by cis-platin 5 mg/kg and radiation 35 Gy (left cheek pouch)", "assay": "Oral mucositis induced by a combination of cisplatin and acute radiation in hamsters, mucositis scoring (Example 4, SCI-04)", "format": "in vivo, Syrian Golden Hamsters", "set-up": "key: 0: Pouch completely healthy. No erythema or vasodilation.; 1: Light to severe erythema and vasodilation. No erosion of mucosa.; 2: Severe erythema and vasodilation. Erosion of superficial aspects of mucosa leaving denuded areas, but no frank ulceration. Decreased stippling of mucosa.; 3: Formation of off-white ulcers in one or more places. Ulcers may have a yellow/gray due to pseudomembrane. Cumulative size of ulcers should equal about ¼ of the pouch. Severe erythema and vasodilation.; 4: Cumulative seize of ulcers should equal about ½ of the pouch. Loss of pliability. Severe erythema and vasodilation.; 5: Virtually all of pouch is ulcerated. Loss of pliability (pouch can only partially be extracted from mouth)", "conditions": "Group 2 (SCV-07 10 μg/kg, day -1 to day 20), individual animal scores, two scores per animal", "description": "Forty Golden Syrian hamsters were prospectively randomized into four equally sized groups. Mucositis was induced on the left cheek pouch mucosa of golden Syrian hamsters by a single dose of cis-platin at 5 mg/kg given on day −1, and a single dose of radiation administered on day 0 at a dose of 35Gy. Beginning on day −1 and continuing once daily until day 20, SCV-07 was given by sub-cutaneous injection at doses of 10 μg/kg, 100 μg/kg or 1 mg/kg in a volume of 100 μL. Animals' activity and weight were evaluated daily. Beginning on day 6 and continuing on alternate days for the duration of the study, oral mucositis was evaluated using a standard scoring six point scale. The number of days of ulcerative mucositis was evaluated using a Chi-squared test of scores of ≧3 throughout the study, and the individual daily group scores were assessed with a Rank Sum Test.\nThe chemo-radiation model of oral mucositis in hamsters, developed by the Principal Investigator, has proven to be an accurate, efficient and cost-effective technique to provide a preliminary evaluation of anti-mucositis compounds. In this model, hamsters received a single dose of cis-platin at 5 mg/kg on day −1, followed by a single dose of radiation of 35 Gy to the left cheek pouch on day 0, rather than the single dose of 40 Gy on day 0 that is used in acute radiation studies. The course of mucositis in this model is very similar to the acute radiation model and results in peak mucositis scores approximately 16-18 days following radiation.\nHamsters received a single dose of cis-platin at 5 mg/kg on day −1 by intra-peritoneal injection, followed by a single dose of radiation of 35 Gy to the left cheek pouch on day 0. This was accomplished by anesthetizing the animals and everting the left buccal pouch, while protecting the rest of the animal's bodies with a lead shield. Test materials were given by sub-cutaneous injection once daily as detailed in Table 13. Mucositis was evaluated clinically starting on day 6, and continuing on alternate days until day 28. Test articles were given as from day −1 to day 20.\nThe grade of mucositis was scored, beginning day 6, and for every second day thereafter, through and including day 28. The effect on mucositis of each drug treatment compared to placebo was assessed according to the following parameters:\nOn each evaluation day, the number of animals with a blinded mucositis score of ≧3 in each drug treatment group was compared to the control group. Differences were compared on a cumulative basis and statistical significance was determined by chi-square analysis. Efficacy, in this analysis, is defined by a significant reduction in the number of days that a group of animals had ulcerations (scores 3) when compared to the control group.\nFor each evaluation day the scores of the control group were compared to those of the treated groups using non-parametric rank sum analysis. Treatment success was considered as a statistically significant lowering of scores in the treated group on 2 or more days from day 6 to day 28.\nForty (40) male Syrian Golden Hamsters were given an intraperitoneal injection of 5 mg/kg Cisplatin on day −1. On day 0 all animals were given an acute radiation dose of 35 Gy directed to their left buccal cheek pouch. This was accomplished by anesthetizing the animals and everting the left buccal pouch, while protecting the rest of the animals with a lead shield. Test materials were given by subcutaneous injection once daily as detailed in Table 13. Mucositis was evaluated clinically starting on Day 6, and continued on alternate days until day 28.\nIn this study, mucositis was induced with a combination of Cis-platin and radiation. Cis-platin was given as a single injection (IP) of 5 mg/kg on day −1. Radiation was given as a single focal dose of 35 Gy on day 0. Radiation was generated with a Philips 160 kVp (kilovolt potential) (18.75-ma) X-ray source at a focal distance of 30 cm, with a 3.0 mm hardened Al filtration system. […]"}, "[2]": {"assay": "Weights and survival (Example 2, SCI-02)", "format": "in vivo, Syrian Golden Hamsters", "description": "All animals were weighed daily and their survival recorded, in order to assess possible differences in animal weight among treatment groups as an indication for mucositis severity and/or possible toxicity resulting from the treatments.\nThe mean daily percent weight change data was evaluated. The saline treated control hamsters gained an average of 44.1% of their starting weight during the study. Hamsters in the group receiving SCV-07 100 μg/kg once daily on days −1 to 20 gained an average of 49.9% of their starting weight during the study. Hamsters in the group receiving SCV-07 at 100 μg/kg twice daily on days −1 to 20 gained an average of 61.3% of their starting weight during the study. Hamsters in the group receiving SCV-07 at 1 mg/kg once daily on days −1 to 20 gained an average of 63.4% of their starting weight during the study. Hamsters in the group receiving SCV-07 at 1 mg/kg twice daily on days −1 to 20 gained an average of 69.1% of their starting weight during the study. The significance of these differences was evaluated by calculating the area-under-the-curve (AUC) for the weight gain of each animal, and then comparing the different treatment groups using a One-Way ANOVA test."}, "[3]": {"tested_on": "immunization with sheep red blood cells", "conditions": "in vivo; cited from earlier work"}, "[4]": {"tested_on": "5-FU-immune-suppressed animals", "conditions": "in vivo; cited from earlier work"}},
  "data": [
    {"smiles": "N[C@H](CCC(=O)N[C@@H](Cc1c[nH]c2ccccc12)C(=O)O)C(=O)O", "note": "[SCV-07, γ-D-glutamyl-L-tryptophan]", "values": [
      {"measurement": "Mucositis score, day 10", "setting": "[1]; day 10", "value": 2},
      {"measurement": "Mucositis score, day 12", "setting": "[1]; day 12", "value": 2},
      {"measurement": "Mucositis score, day 14", "setting": "[1]; day 14", "value": 2},
      {"measurement": "Mucositis score, day 16", "setting": "[1]; day 16", "value": 2},
      {"measurement": "Mucositis score, day 18", "setting": "[1]; day 18", "value": 2},
      {"measurement": "Mucositis score, day 20", "setting": "[1]; day 20", "value": 2},
      {"measurement": "Mucositis score, day 22", "setting": "[1]; day 22", "value": 2},
      {"measurement": "Mucositis score, day 24", "setting": "[1]; day 24", "value": 2},
      {"measurement": "Mucositis score, day 26", "setting": "[1]; day 26", "value": 2},
      {"measurement": "Mucositis score, day 28", "setting": "[1]; day 28", "value": 2},
      {"measurement": "average weight gain, % of starting weight during the study", "setting": "[2]; 100 ug/kg once daily on days -1 to 20", "value": 49.9, "unit": "%"},
      {"measurement": "P, weight gain greater than saline controls", "setting": "[2]; 100 ug/kg twice daily", "value": 0.014},
      {"measurement": "average weight gain, % of starting weight during the study", "setting": "[2]; 100 ug/kg twice daily on days -1 to 20", "value": 61.3, "unit": "%"},
      {"measurement": "P, weight gain greater than saline controls", "setting": "[2]; 1 mg/kg once daily", "value": 0.009},
      {"measurement": "average weight gain, % of starting weight during the study", "setting": "[2]; 1 mg/kg once daily on days -1 to 20", "value": 63.4, "unit": "%"},
      {"measurement": "P, weight gain greater than saline controls", "setting": "[2]; 1 mg/kg twice daily", "value": 0.004},
      {"measurement": "average weight gain, % of starting weight during the study", "setting": "[2]; 1 mg/kg twice daily on days -1 to 20", "value": 69.1, "unit": "%"},
      {"measurement": "P, One-Way ANOVA of weight gain AUC, SCV-07 treated groups vs control group", "setting": "[2]; all SCV-07 groups, significant differences", "value": 0.012},
      {"measurement": "immunostimulatory effect in a model of immunization with sheep red blood cells", "setting": "[3]", "value": "strong immunostimulatory effect"},
      {"measurement": "immunostimulatory effect on 5-FU-immune-suppressed animals", "setting": "[4]", "value": "strong immunostimulatory effect"}
    ]}
  ]
}
